Experimental data reported in ChEMBL document CHEMBL5532639, “Heterocyclic pyrimidine derivatives as promising antibacterial agents” (Eur J Med Chem, 2023).
≈ marks a conversion by molar mass, not a printed value.

Assays:
Salmonella typhimurium [1] = experiment: Antibacterial activity against Salmonella typhimurium DT104 assessed as reduction in bacterial growth inhibition measured after 24 hrs by Mueller Hinton Agar dilution method; assay type: functional, Salmonella enterica subsp. enterica serovar Typhimurium; settings: Salmonella enterica
Vibrio parahaemolyticus = experiment: Antibacterial activity against Vibrio parahaemolyticus assessed as reduction in bacterial growth inhibition measured after 24 hrs by Mueller Hinton Agar dilution method; assay type: functional
[2] = system: Salmonella enterica subsp. enterica serovar Paratyphi B; experiment: Antibacterial activity against Salmonella paratyphi B CICC 21495 assessed as reduction in […]; assay type: functional; settings: time lower 48 hrs
Edwardsiella tarda = experiment: Antimicrobial activity against Edwardsiella tarda assessed as inhibition of microbial growth incubated for 18 hrs by CLSI protocol based Mueller-Hinton broth assay; assay type: functional
Vibrio cholerae [3] = experiment: Antibacterial activity against Vibrio cholerae assessed as inhibition of bacterial growth incubated for 24 hrs by broth microdilution method; assay type: functional
Staphylococcus aureus [4] = experiment: Antimicrobial activity against Staphylococcus aureus assessed as inhibition of microbial growth incubated for 18 hrs by CLSI protocol based Mueller-Hinton broth assay; assay type: functional
Escherichia coli [5] = experiment: Antimicrobial activity against Escherichia coli assessed as inhibition of microbial growth incubated for 18 hrs by CLSI protocol based Mueller-Hinton broth assay; assay type: functional
Vibrio cholerae [6] = experiment: Antibacterial activity against Vibrio cholerae measured after 18 to 20 hrs by broth microdilution method; assay type: functional; settings: time 18-20 hrs
Enterococcus faecalis = experiment: Antimicrobial activity against Enterococcus faecalis assessed as inhibition of microbial growth incubated for 18 hrs by CLSI protocol based Mueller-Hinton broth assay; assay type: functional
Salmonella typhimurium [7] = experiment: Antimicrobial activity against Salmonella typhimurium DT104 assessed as inhibition of microbial growth incubated for 18 hrs by CLSI protocol based Mueller-Hinton broth assay; assay type: functional, Salmonella enterica subsp. enterica serovar Typhimurium; settings: Salmonella enterica
Pseudomonas aeruginosa [8] = experiment: Antimicrobial activity against Pseudomonas aeruginosa assessed as inhibition of microbial growth incubated for 18 hrs by CLSI protocol based Mueller-Hinton broth assay; assay type: functional
Klebsiella pneumoniae [9] = experiment: Antimicrobial activity against Klebsiella pneumoniae assessed as inhibition of microbial growth incubated for 18 hrs by CLSI protocol based Mueller-Hinton broth assay; assay type: functional
[10] = system: Staphylococcus epidermidis; experiment: Antimicrobial activity against Staphylococcus epidermidis assessed as inhibition of microbial growth incubated for 18 hrs by CLSI protocol based Mueller-Hinton broth assay; assay type: functional
Salmonella enterica = experiment: Antimicrobial activity against Salmonella enterica assessed as inhibition of microbial growth incubated for 18 hrs by CLSI protocol based Mueller-Hinton broth assay; assay type: functional
Aeromonas hydrophila = experiment: Antibacterial activity against Aeromonas hydrophila assessed as inhibition of microbial growth incubated for 24 hrs by CLSI protocol based Mueller-Hinton broth assay; assay type: functional
Vibrio cholerae [11] = experiment: Antibacterial activity against Vibrio cholerae assessed as reduction in bacterial growth measured after 18 to 20 hrs by broth microdilution method; assay type: functional; settings: time 18-20 hrs
Bacillus subtilis [12] = experiment: Antibacterial activity against Bacillus subtilis assessed as reduction in bacterial growth incubated for 24 hrs by CLSI protocol based Mueller-Hinton broth assay; assay type: functional
Shigella sonnei = experiment: Antibacterial activity against Shigella sonnei assessed as inhibition of bacterial growth measured after 18 to 20 hrs by broth microdilution method; assay type: functional; settings: time 18-20 hrs
Shigella boydii = experiment: Antibacterial activity against Shigella boydii assessed as inhibition of bacterial growth measured after 18 to 20 hrs by broth microdilution method; assay type: functional; settings: time 18-20 hrs
Plesiomonas shigelloides = experiment: Antibacterial activity against Plesiomonas shigelloides assessed as inhibition of bacterial growth measured after 18 to 20 hrs by broth microdilution method; assay type: functional; settings: time 18-20 hrs
Providencia rettgeri = experiment: Antibacterial activity against Providencia rettgeri assessed as bacterial growth inhibition incubated for 18 hrs by CLSI protocol based Mueller-Hinton broth assay; assay type: functional
Shigella flexneri = experiment: Antibacterial activity against Shigella flexneri assessed as inhibition of bacterial growth incubated for 24 hrs by broth microdilution method; assay type: functional
Proteus vulgaris = experiment: Antimicrobial activity against Proteus vulgaris assessed as microbial growth inhibition incubated for 24 hrs by broth microdilution method; assay type: functional
Enterobacter sp. = experiment: Antibacterial activity against Enterobacter sp. assessed as inhibition of bacterial growth; assay type: functional
Morganella morganii [13] = experiment: Antibacterial activity against Morganella morganii UM869 incubated for 16 to 18 hrs by broth microdilution method; assay type: functional; settings: time 16-18 hrs
Citrobacter freundii = experiment: Antibacterial activity against multidrug-resistant Citrobacter freundii assessed as bacterial growth inhibition incubated for 20 to 22 hrs by CLSI based analysis; assay type: functional; settings: time 20-22 hrs
Morganella morganii [14] = experiment: Antibacterial activity against Morganella morganii UM573 assessed as bacterial growth inhibition incubated for 20 to 22 hrs by CLSI based analysis; assay type: functional; settings: time 20-22 hrs
Salmonella paratyphi = experiment: Antibacterial activity against Salmonella paratyphi A CICC 21501 incubated overnight by standard microtiter dilution method; assay type: functional, Salmonella enterica subsp. enterica serovar Paratyphi A; settings: Salmonella enterica
Streptococcus pneumoniae = experiment: Antibacterial activity against Streptococcus pneumoniae; assay type: functional
Bacillus subtilis [15] = experiment: Antibacterial activity against Bacillus subtilis; assay type: functional
Staphylococcus aureus [16] = experiment: Antibacterial activity against Staphylococcus aureus; assay type: functional
Pseudomonas aeruginosa [17] = experiment: Antibacterial activity against Pseudomonas aeruginosa; assay type: functional
Escherichia coli [18] = experiment: Antibacterial activity against Escherichia coli; assay type: functional
Escherichia coli [19] = experiment: Antibacterial activity against Escherichia coli assessed as reduction in bacterial growth; assay type: functional
Pseudomonas aeruginosa [20] = experiment: Antibacterial activity against Pseudomonas aeruginosa assessed as reduction in bacterial growth; assay type: functional
Staphylococcus aureus [21] = experiment: Antibacterial activity against Staphylococcus aureus assessed as reduction in microbial growth; assay type: functional
Klebsiella sp. = experiment: Antibacterial activity against Klebsiella sp. assessed as inhibition of bacterial growth; assay type: functional
Staphylococcus aureus [22] = experiment: Antibacterial activity against Staphylococcus aureus assessed as bacterial growth inhibition; assay type: functional
Escherichia coli [23] = experiment: Antibacterial activity against Escherichia coli assessed as reduction in bacterial growth by broth microdilution method; assay type: functional
Pseudomonas aeruginosa [24] = experiment: Antibacterial activity against Pseudomonas aeruginosa assessed as reduction in microbial growth by broth microdilution method; assay type: functional
Escherichia coli [25] = experiment: Antibacterial activity Escherichia coli assessed as reduction in bacterial growth; assay type: functional
Pseudomonas aeruginosa [26] = experiment: Antibacterial activity against Pseudomonas aeruginosa assessed as reduction in microbial growth after 18 hrs by MTT based broth dilution method; assay type: functional
Klebsiella pneumoniae [27] = experiment: Antibacterial activity against Klebsiella pneumoniae assessed as reduction in bacterial growth by broth microdilution method; assay type: functional
Bacillus subtilis [28] = experiment: Antibacterial activity against Bacillus subtilis assessed as reduction in bacterial cell viability by well plate method; assay type: functional
[29] = system: Staphylococcus epidermidis; experiment: Antibacterial activity against Staphylococcus epidermidis assessed as reduction in microbial growth; assay type: functional
Salmonella typhimurium [30] = experiment: Antimicrobial activity against Salmonella typhimurium DT104 assessed as diameter of inhibition zone incubated for 24 hrs by well diffusion assay; assay type: functional, Salmonella enterica subsp. enterica serovar Typhimurium
Micrococcus luteus = experiment: Antimicrobial activity against Micrococcus luteus assessed as diameter of inhibition zone incubated for 24 hrs by well diffusion assay; assay type: functional
Pseudomonas aeruginosa [31] = experiment: Antimicrobial activity against Pseudomonas aeruginosa assessed as diameter of inhibition zone incubated for 24 hrs by well diffusion assay; assay type: functional
Bacillus subtilis [32] = experiment: Antimicrobial activity against Bacillus subtilis assessed as diameter of inhibition zone incubated for 24 hrs by well diffusion assay; assay type: functional
Bacillus subtilis [33] = experiment: Antibacterial activity against Bacillus subtilis ATCC 465 assessed as reduction in bacterial growth measured after 24 hrs by Mueller-Hinton broth assay; assay type: functional
Pseudomonas aeruginosa [34] = experiment: Antibacterial activity against Pseudomonas aeruginosa ATCC 85327 assessed as reduction in bacterial growth measured after 24 hrs by Mueller-Hinton broth assay; assay type: functional
Bacillus subtilis [35] = experiment: Antibacterial activity against Bacillus subtilis assessed as reduction in microbial growth by measuring zone of inhibition; assay type: functional

## Cc1cc(NS(=O)(=O)c2ccc(N)cc2)no1 [SULFAMETHOXAZOLE]
Salmonella typhimurium [1]
  MIC: 5000 µg/mL (≈ 19700 µM)
Vibrio parahaemolyticus
  MIC: 1250 µg/mL (≈ 4940 µM)
[2]
  MIC: 5000 µg/mL (≈ 19700 µM)
Edwardsiella tarda
  MIC: 5000 µg/mL
Vibrio cholerae [3]
  MIC: > 5000 µg/mL
Staphylococcus aureus [4]
  MIC: 5000 µg/mL
Escherichia coli [5]
  MIC: 2500 µg/mL
Vibrio cholerae [6]
  MIC: 312 µg/mL (≈ 1230 µM)
Enterococcus faecalis
  MIC: 5000 µg/mL
Salmonella typhimurium [7]
  MIC: 2500 µg/mL
Pseudomonas aeruginosa [8]
  MIC: 78.1 µg/mL
Klebsiella pneumoniae [9]
  MIC: 2500 µg/mL
[10]
  MIC: 2500 µg/mL
Salmonella enterica
  MIC: 2500 µg/mL
Aeromonas hydrophila
  MIC: 2500 µg/mL
Vibrio cholerae [11]
  MIC: 5000 µg/mL (≈ 19700 µM)
Bacillus subtilis [12]
  MIC: 5000 µg/mL (≈ 19700 µM)
Shigella sonnei
  MIC: 2500 µg/mL (≈ 9870 µM)
Shigella boydii
  MIC: 2500 µg/mL (≈ 9870 µM)
Plesiomonas shigelloides
  MIC: 5000 µg/mL (≈ 19700 µM)
Providencia rettgeri
  MIC: 2500 µg/mL (≈ 9870 µM)
Shigella flexneri
  MIC: 2500 µg/mL (≈ 9870 µM)
Proteus vulgaris
  MIC: 2500 µg/mL (≈ 9870 µM)
Enterobacter sp.
  MIC: 1250 µg/mL (≈ 4940 µM)
Morganella morganii [13]
  MIC: 2500 µg/mL (≈ 9870 µM)
Citrobacter freundii
  MIC: 5000 µg/mL (≈ 19700 µM)
Morganella morganii [14]
  MIC: 5000 µg/mL (≈ 19700 µM)
Salmonella paratyphi
  MIC: 2500 µg/mL (≈ 9870 µM)

## O=c1[nH]c(=S)[nH]c2nc(-c3ccc(Cl)cc3)cc(-c3ccccc3)c12
Streptococcus pneumoniae
  MIC: 0.98 µg/mL (≈ 2.68 µM)
Bacillus subtilis [15]
  MIC: 1.95 µg/mL (≈ 5.33 µM)
Staphylococcus aureus [16]
  MIC: 3.9 µg/mL (≈ 10.7 µM)
Pseudomonas aeruginosa [17]
  MIC: 3.9 µg/mL (≈ 10.7 µM)
Escherichia coli [18]
  MIC: 0.98 µg/mL (≈ 2.68 µM)

## NC(=O)N/N=C/c1ccc([N+](=O)[O-])o1 [NITROFURAZONE]
Escherichia coli [19]
  MIC: 12.5 µg/mL (≈ 63.1 µM)
Pseudomonas aeruginosa [20]
  MIC: 6 µg/mL (≈ 30.3 µM)
Staphylococcus aureus [21]
  MIC: 12.5 µg/mL
Klebsiella sp.
  MIC: 12.5 µg/mL (≈ 63.1 µM)

## O=C1CCCC2=C1C(c1ccc(Cl)cc1)c1c(nc(-c3cc4ccccc4oc3=O)[nH]c1=O)O2 (stereo unspecified)
Staphylococcus aureus [22]
  MIC: 100 µg/mL (≈ 211 µM)
Escherichia coli [23]
  MIC: 50 µg/mL (≈ 106 µM)
Pseudomonas aeruginosa [24]
  MIC: 100 µg/mL
Escherichia coli [25]
  MIC: 100 µg/mL (≈ 211 µM)
Pseudomonas aeruginosa [26]
  MIC: 100 µg/mL
Klebsiella pneumoniae [27]
  MIC: 100 µg/mL (≈ 211 µM)
Bacillus subtilis [28]
  MIC: 25 µg/mL (≈ 52.9 µM)
[29]
  MIC: 50 µg/mL

## CC[C@H]1OC(=O)[C@H](C)[C@@H](O[C@H]2C[C@@](C)(OC)[C@@H](O)[C@H](C)O2)[C@H](C)[C@@H](O[C@@H]2O[C@H](C)C[C@H](N(C)C)[C@H]2O)[C@](C)(O)C[C@@H](C)C(=O)[C@H](C)[C@@H](O)[C@]1(C)O [ERYTHROMYCIN]
Salmonella typhimurium [30]
  inhibition zone (IZ): 7 mm
Micrococcus luteus
  inhibition zone (IZ): 10 mm
Pseudomonas aeruginosa [31]
  inhibition zone (IZ): 10 mm
Bacillus subtilis [32]
  inhibition zone (IZ): 12 mm

## COc1cc(Cc2cnc(N)nc2N)cc(OC)c1OC [TRIMETHOPRIM]
Salmonella typhimurium [1]
  MIC: > 5000 µg/mL
Vibrio parahaemolyticus
  MIC: 2.44 µg/mL (≈ 8.4 µM)
[2]
  MIC: 9.76 µg/mL (≈ 33.6 µM)
Edwardsiella tarda
  MIC: 312 µg/mL
Vibrio cholerae [3]
  MIC: 39.1 µg/mL (≈ 135 µM)
Staphylococcus aureus [4]
  MIC: > 5000 µg/mL
Escherichia coli [5]
  MIC: 19.5 µg/mL
Vibrio cholerae [6]
  MIC: 1.22 µg/mL (≈ 4.2 µM)
Enterococcus faecalis
  MIC: 78.1 µg/mL
Salmonella typhimurium [7]
  MIC: 4.88 µg/mL
Pseudomonas aeruginosa [8]
  MIC: 5000 µg/mL
Klebsiella pneumoniae [9]
  MIC: 5000 µg/mL
[10]
  MIC: > 5000 µg/mL
Salmonella enterica
  MIC: 4.88 µg/mL
Aeromonas hydrophila
  MIC: 1250 µg/mL
Vibrio cholerae [11]
  MIC: 5000 µg/mL (≈ 17200 µM)
Bacillus subtilis [12]
  MIC: 5000 µg/mL (≈ 17200 µM)
Shigella sonnei
  MIC: 9.76 µg/mL (≈ 33.6 µM)
Shigella boydii
  MIC: 9.76 µg/mL (≈ 33.6 µM)
Plesiomonas shigelloides
  MIC: 4.88 µg/mL (≈ 16.8 µM)
Providencia rettgeri
  MIC: 2500 µg/mL (≈ 8610 µM)
Shigella flexneri
  MIC: 156 µg/mL (≈ 538 µM)
Proteus vulgaris
  MIC: 156 µg/mL (≈ 538 µM)
Enterobacter sp.
  MIC: 156 µg/mL (≈ 538 µM)
Morganella morganii [13]
  MIC: 156 µg/mL (≈ 538 µM)
Citrobacter freundii
  MIC: 19.5 µg/mL (≈ 67.3 µM)
Morganella morganii [14]
  MIC: 156 µg/mL (≈ 538 µM)
Salmonella paratyphi
  MIC: 156 µg/mL (≈ 538 µM)

## GENTAMICIN
Bacillus subtilis [33]
  MIC: 0.125 µg/mL
Pseudomonas aeruginosa [34]
  MIC: 1 µg/mL
Pseudomonas aeruginosa [17]
  MIC: 0.98 µg/mL
Bacillus subtilis [35]
  inhibition zone (IZ): 24 mm
